Key:
Type in all cases: functional, Homo sapiens
Parameters in all cases: dose or concentration left out as unconfirmed
[1] = tested on: Colon cancer organoid; experiment: Optimized Dual-Glo assay to identify co-culture induced drug vulnerabilities using donated chemical probes and chemogenomics kinase set in O06 CRC organoid and F06 CAF mono and co-culture. […] Cell viability is reported both mono and co-culture models.
[2] = tested on: Colon cancer organoid; experiment: Optimized Dual-Glo assay to identify co-culture induced drug vulnerabilities using donated chemical probes and chemogenomics kinase set in O14 CRC organoid and F14 CAF mono and co-culture. […] Cell viability is reported both mono and co-culture models.
[3] = tested on: Colon cancer organoid; experiment: Optimized Dual-Glo assay to identify co-culture induced drug vulnerabilities using donated chemical probes and chemogenomics kinase set in O20 CRC organoid and F20 CAF mono and co-culture. […] Cell viability is reported both mono and co-culture models.
[4] = Culture type Co-Culture, Transduced with Lucferase2-P2A-EGFP lentivirus
[5] = Culture type Co-Culture, Transduced with Renilla-dsRed lentivirus
[6] = Culture type Mono-Culture, Transduced with Lucferase2-P2A-EGFP lentivirus
[7] = Culture type Mono-Culture, Transduced with Renilla-dsRed lentivirus

Structure (SMILES) | Cell Viability [1, 4] | Cell Viability [1, 5] | Cell Viability [1, 6] | Cell Viability [1, 7] | Cell Viability [2, 4] | Cell Viability [2, 5] | Cell Viability [2, 6] | Cell Viability [2, 7] | Cell Viability [3, 4] | Cell Viability [3, 5] | Cell Viability [3, 6] | Cell Viability [3, 7]
Cc1cc(C)cc(C(=O)NOCCCCCC(=O)NO)c1 | 13.8956% | 454.718% | 14.9602% | 431.4% | 50.8168% | 381.601% | 48.3088% | 262.893% | 15.3163% | 402.959% | 16.4949% | 194.272%
CCn1cc(-c2cccc(C(F)(F)F)c2)c2sc(C(=N)NC3CCS(=O)(=O)CC3)cc2c1=O | 95.4713% | 165.165% | 69.4061% | 200.249% | 120.643% | 201.969% | 99.2111% | 135.353% | 60.6992% | 124.144% | 95.8372% | 109.255%
C[C@@H]1CC(=O)Nc2cccc(-c3ccc4c(c3)c(-c3cnn(C)c3)nn4C)c2N1 | 96.7982% | 166.358% | 47.1538% | 205.908% | 64.6948% | 192.573% | 92.2277% | 159.466% | 69.0231% | 148.573% | 48.9735% | 106.497%
CC(=O)c1cc(-c2cc(C(=O)NC3CC3)ccc2C)c2ncccn12 | 95.4153% | 118.795% | 58.2009% | 132.016% | 100.15% | 126.848% | 106.827% | 109.242% | 68.1057% | 121.421% | 109.894% | 113.039%
Cc1sc2c(c1C)C(c1ccc(Cl)cc1)=N[C@@H](CC(=O)NCCCCCCCCNC(=O)COc1cccc3c1C(=O)N(C1CCC(=O)NC1=O)C3=O)c1nnc(C)n1-2 (stereo partly drawn) | 5.4511% | 19.3995% | 5.5885% | 11.9931% | 2.938% | 15.8723% | 4.49% | 21.4216% | 2.002% | 74.9854% | 1.636% | 22.3036%
CN(C)CCCOc1ccc(-c2cc(NCCCn3cccn3)nc(S(C)(=O)=O)n2)cc1 | 126.468% | 129.443% | 108.628% | 116.281% | 98.5657% | 111.103% | 109.089% | 94.6282% | 144.301% | 126.832% | 110.606% | 92.2355%
Cc1c(Nc2ccc(S(=O)(=O)N3CCN(C)CC3)cc2F)nc2ccc(Nc3cnn(C4CC4)c3)cn2c1=O | 81.8172% | 120.859% | 129.193% | 116.74% | 111.5% | 108.059% | 92.684% | 101.792% | 117.664% | 135.679% | 121.681% | 97.2871%
Cc1c(Nc2ccc(S(=O)(=O)N3CCN(C)CC3)cc2F)nc2ccc(-c3cnn(C4CC4)c3)cn2c1=O | 106.525% | 138.146% | 47.9872% | 100.536% | 89.9801% | 85.4908% | 97.5645% | 92.3914% | 100.034% | 149.535% | 70.24% | 85.351%
CCCCN(Cc1ccccc1)C(=O)c1ccc(S(=O)(=O)Nc2ccccc2)cc1 | 64.4698% | 76.2121% | 99.0346% | 112.912% | 108.863% | 102.946% | 107.066% | 103.133% | 74.981% | 116.955% | 117.076% | 107.638%
COc1cc(OC)cc(-c2noc(N3CCN(C)C4(CCN(c5ccnc(C)c5)CC4)C3)n2)c1 | 121.179% | 136.172% | 96.7414% | 97.7605% | 84.0267% | 119.648% | 90.6911% | 98.8129% | 136.007% | 146.282% | 103.16% | 78.5515%
CNc1cc(Oc2cc(C(=O)Nc3cc(N4CCN(C)CC4)cc(C(F)(F)F)c3)ccc2C)ncn1 | 72.9479% | 75.3319% | 138.287% | 104.785% | 139.066% | 110.099% | 182.817% | 99.4408% | 162.082% | 75.5289% | 115.09% | 103.127%
CC1=C(C)C(=O)C(C(C)(C)CC(=O)N(CCCCSC[C@H]2O[C@@H](n3cnc4c(N)ncnc43)[C@@H]3OC(C)(C)O[C@@H]32)Cc2cccc(-c3ccc(Cl)cc3)c2)=C(C)C1=O | 82.0361% | 129.013% | 89.6281% | 110.922% | 111.496% | 127.734% | 88.6013% | 108.216% | 97.2624% | 117.278% | 134.873% | 88.9157%
COCCN1CCC(c2cc(CN(C)C(=O)c3cccc(Oc4ccccc4)c3)ccn2)CC1 | 91.2389% | 131.922% | 95.8918% | 124.805% | 94.0691% | 112.751% | 102.019% | 112.74% | 94.1045% | 115.605% | 130.999% | 103.56%
CC1=C(C)C(=O)C(C(C)(C)CC(=O)N(CCCCSC[C@H]2O[C@@H](n3cnc4c(N)ncnc43)[C@H](O)[C@@H]2O)Cc2cccc(-c3ccc(Cl)cc3)c2)=C(C)C1=O | 117.447% | 138.552% | 64.6918% | 115.82% | 78.0162% | 155.416% | 78.4613% | 102.407% | 99.381% | 114.813% | 107.414% | 99.5191%
